Patent publication US12161650B2, “Pharmaceutical compositions comprising a ryanodine receptor modulator and uses thereof” (priority 2021, dated 2024)

Columns and labels:
Type in all cases: in vivo, human (healthy male volunteers)
[1] = Phase 1 clinical trial, Part I single ascending doses, plasma pharmacokinetics; details: for Tmax / AUC(0-t) / Cmax / AUC / half-life: male, human, plasma; for AUC(0-t) / Cmax: Day 1, geom. mean; for AUC: Day 1, zero to infinity; for AUC / half-life: geom. mean; for half-life: read-out: t1/2, z (converted)
Protocol: (§1) A Phase 1, randomized, double-blind, placebo-controlled clinical trial was performed to assess the safety and pharmacokinetics (PK) of Compound I after single, escalating, and repeated oral doses in health male volunteers.
(§2) 4-[(7-methoxy-2,3-dihydro-1,4-benzothiazepin-4(5H)yl)methyl]benzoic acid hemi-fumarate (Compound I) was administered in a gastro-resistant tablet according to Example 1. The formulation contained 20 mg, 40 mg, or 200 mg Compound I (based on the mass of 4-[(7-methoxy-2,3-dihydro-1,4-benzothiazepin-4(5H)yl)methyl]benzoic acid). Placebo tablet according to Example 4 was used as comparator.
[…] Forty subjects completed part I: 30 active (6 per cohort) and 10 placebo.
In Part I, blood samples were collected from each participant as follows: at pre-dose, then 0.25, 0.5, 1, 1.5, 2, 3, 4, 5, 6, 8, 10, 12, 16, 24, 36, 48, 60, 72, and 96 hours after dosing.
(§3) The area under the plasma concentration-time curve was calculated using a combined linear and logarithmic trapezoidal rule. The interpolation was linear in the constant and ascending parts of the plasma concentration-time profiles. The interpolation was logarithmic in the descending parts.
For Part I, to assess the dose effect on the PK of Compound I, the mean AUClast, and Cmax for each dose were calculated and were plotted by dose.
(§4) For each group and treatment, descriptive statistics (N, arithmetic mean, standard deviation, minimum, median, maximum, coefficient of variation, geometric mean, and geometric CV, as appropriate) were calculated for the concentrations and pharmacokinetic parameters of Compound I.
(§5) Plasma and muscle samples were analyzed by LC-MS/MS method.

[2] = Phase 1 clinical trial, Part II multiple ascending doses over 14 days, plasma pharmacokinetics; details: for Cmax / Tmax / AUC(0-t) / AUC / half-life: male, human, plasma; for AUC(0-t): read-out: AUC0-24
Protocol: as §1, §2
In Part II, participants from groups I, J, K, and L received repeated doses of 20 mg, 60 mg, 120 mg, or 240 mg Compound I, respectively, or corresponding placebo once daily over a period of 14 days. Forty-one subjects completed Part II: 7/7/8/7 for cohorts I, J, K, L, and twelve placebo.
In Part II, blood samples were collected from each participant as follows: Day 1: 12 samples from the pre-morning dose up to 16 h (pre-dose, 0.25, 0.5, 1, 1.5, 2, 3, 4, 6, 8, 12, and 16 h), Days 2-13: 12 samples at pre-doses (i.e., morning dose); Day 14: 16 samples from the pre-morning dose up to 96 (D14 pre-dose, 0.25, 0.5, 1, 1.5, 2, 3, 4, 6, 8, 12, and 16 h and D15-18: 1 sample before theoretical morning dosing.
as §3
For Part II, the same approach was used on AUCτ (Day 14) respectively AUC24 (Day 1), and Cmax.
as §4, §5

[3] = Phase 1 clinical trial, safety of single and repeated oral doses
Protocol: as §1
(§6) The primary objective was to assess the safety of escalating single oral doses of Compound I compared with placebo in healthy male volunteers. The secondary objective was to measure plasma pharmacokinetic (PK) parameters of Compound I.
as §6, with “repeated” for “single”, “I over 14 days” for “I”, “I and to assess the concentration of Compound I in quadriceps muscle.” for “I.”

[4] = geometric means across dose groups 20-240 mg, 14-day repeated administration

## COc1ccc2c(c1)CN(Cc1ccc(C(=O)O)cc1)CCS2.O=C(O)/C=C/C(=O)O [Compound I, 4-[(7-methoxy-2,3-dihydro-1,4-benzothiazepin-4(5H)yl)methyl]benzoic acid hemifumarate]
[1]; single oral administration at 20 to 400 mg, across doses, read-out: median Tmax
  Tmax: 3 to 4.5 h
[1]; single oral dose 40 mg (Treatment A, n = 6)
  AUC(0-t): 68.7 µg·h/mL
[1]; single oral dose 40 mg
  Cmax: 3940 ng/mL
  AUC: 71.7 µg·h/mL
  half-life: 20.9 h
[1]; single oral dose 40 mg, Day 1, median, read-out: tmax
  Tmax: 3 h
[1]; single oral dose 80 mg (Treatment B, n = 6)
  AUC(0-t): 153 µg·h/mL
[1]; single oral dose 80 mg
  Cmax: 6880 ng/mL
  AUC: 163 µg·h/mL
  half-life: 22.7 h
[1]; single oral dose 80 mg, Day 1, median, read-out: tmax
  Tmax: 3 h
[1]; single oral dose 160 mg (Treatment C, n = 6)
  AUC(0-t): 304 µg·h/mL
[1]; single oral dose 160 mg
  Cmax: 15500 ng/mL
  AUC: 312 µg·h/mL
  half-life: 17.5 h
[1]; single oral dose 160 mg, Day 1, median, read-out: tmax
  Tmax: 3 h
[1]; single oral dose 240 mg (Treatment D, n = 6)
  AUC(0-t): 451 µg·h/mL
[1]; single oral dose 240 mg
  Cmax: 24500 ng/mL
  AUC: 464 µg·h/mL
  half-life: 17.7 h
[1]; single oral dose 240 mg, Day 1, median, read-out: tmax
  Tmax: 4.5 h
[1]; single oral dose 400 mg (Treatment E, n = 6)
  AUC(0-t): 656 µg·h/mL
[1]; single oral dose 400 mg
  Cmax: 35100 ng/mL
  AUC: 708 µg·h/mL
  half-life: 18.7 h
[1]; single oral dose 400 mg, Day 1, median, read-out: tmax
  Tmax: 3.5 h
[1]; single oral administration at 20 to 400 mg
  Tlag: less than 2 hours
[1]; single oral administration of 20, 40, 80, 160, 240, and 400 mg, after a lag time
  Absorption: rapid absorption was observed
[1]; single oral doses
  Non-linearity with the dose: No evidence of non-linearity with the dose was observed
[1]; single oral doses, graphical inspections
  Dose proportionality with regard to AUClast and Cmax: dose proportionality
[2]; 240 mg cohort
  Day at which steady-state was attained: 5 days
[2]; 20, 60, and 120 mg cohorts
  Day at which steady-state was attained: 4 days
[2]; daily treatment, across cohorts
  Time to steady-state: 3 to 7 days
[2]; [4]
  Accumulation ratio based on AUC: 1.4-1.8
  Accumulation ratio based on Cmax: 1.4-1.8
[2]; oral, 20 mg, 20 mg once daily, Day 1, geom. mean (geom. % CV), n = 8
  Cmax: 2200 ng/mL
[2]; oral, 20 mg, 20 mg once daily, Day 1, median (range), n = 8, read-out: tmax
  Tmax: 2.52 h
[2]; oral, 20 mg, 20 mg once daily, Day 14, geom. mean
  Cmax: 3110 ng/mL
[2]; oral, 20 mg, 20 mg once daily, Day 14, median, read-out: tmax
  Tmax: 3 h
[2]; oral, 60 mg, 60 mg once daily, Day 1, geom. mean
  Cmax: 6090 ng/mL
[2]; oral, 60 mg, 60 mg once daily, Day 1, median, read-out: tmax
  Tmax: 3 h
[2]; oral, 60 mg, 60 mg once daily, Day 14, geom. mean
  Cmax: 8840 ng/mL
[2]; oral, 60 mg, 60 mg once daily, Day 14, median, read-out: tmax
  Tmax: 1.45 h
[2]; oral, 120 mg, 120 mg once daily, Day 1, geom. mean
  Cmax: 11500 ng/mL
[2]; oral, 120 mg, 120 mg once daily, Day 1, median, read-out: tmax
  Tmax: 3 h
[2]; oral, 120 mg, 120 mg once daily, Day 14, geom. mean
  Cmax: 16300 ng/mL
[2]; oral, 120 mg, 120 mg once daily, Day 14, median, read-out: tmax
  Tmax: 3.5 h
[2]; oral, 240 mg, 240 mg once daily, Day 1, geom. mean
  Cmax: 23900 ng/mL
[2]; oral, 240 mg, 240 mg once daily, Day 1, median, read-out: tmax
  Tmax: 3 h
[2]; oral, 240 mg, 240 mg once daily, Day 14, geom. mean
  Cmax: 34900 ng/mL
[2]; oral, 240 mg, 240 mg once daily, Day 14, median, read-out: tmax
  Tmax: 3 h
[2]; oral, 20 mg once daily (Treatment I), Day 1, geom. mean, n = 7
  AUC(0-t): 24.3 µg·h/mL
[2]; oral, 20 mg once daily, Day 14, geom. mean
  AUC: 40.1 µg·h/mL
[2]; oral, 20 mg once daily, Day 14, geom. mean, read-out: t1/2, z (converted)
  half-life: 19.3 h
[2]; oral, 60 mg once daily (Treatment J, n = 7), Day 1, geom. mean
  AUC(0-t): 69.2 µg·h/mL
[2]; oral, 60 mg once daily, Day 14, geom. mean
  AUC: 115 µg·h/mL
[2]; oral, 60 mg once daily, Day 14, geom. mean, read-out: t1/2, z (converted)
  half-life: 19.7 h
[2]; oral, 120 mg once daily (Treatment K, n = 8), Day 1, geom. mean
  AUC(0-t): 138 µg·h/mL
[2]; oral, 120 mg once daily, Day 14, geom. mean
  AUC: 221 µg·h/mL
[2]; oral, 120 mg once daily, Day 14, geom. mean, read-out: t1/2, z (converted)
  half-life: 19.3 h
[2]; oral, 240 mg once daily (Treatment L, n = 7), Day 1, geom. mean
  AUC(0-t): 270 µg·h/mL
[2]; oral, 240 mg once daily, Day 14, geom. mean
  AUC: 465 µg·h/mL
[2]; oral, 240 mg once daily, Day 14, geom. mean, read-out: t1/2, z (converted)
  half-life: 19.8 h
[2]; oral, based on the results of the single and repeat dose studies, read-out: Mean apparent terminal half-life (converted)
  half-life: ~20 h
[2]; po, after 14-days of repeated once daily oral administrations, across cohorts, read-out: median Tmax
  Tmax: 3 to 4 h
[2]; repeated doses, graphical inspections
  Dose proportionality regarding AUCτ resp. AUC0-24 and Cmax: dose proportionality
[2]; repeated oral administrations at 20, 60, 120, and 240 mg/d
  Non-linearity with the time and dose: No evidence of non-linearity with the time and dose was observed
[3]; at the doses and dose regimens tested
  Tolerability: well tolerated
[3]; single doses up to 400 mg and repeated doses up to 240 mg/d for 14 days
  Serious adverse events: No serious adverse events were reported
